Some results are limits rather than exact numbers.

On to `CS(=O)(=O)NC(=O)Nc1ccc(Cl)cc1`, for which the melting point (as a rule, the temperature, or range, at which the solid turns liquid) lay within 225 to 235 °C.

For `Cc1c(-c2ccc(O)cc2)sc(C#N)c1-c1cccc(O)c1`, the melting point fell in the range of 220 to 222 °C. The value for `CC(C)(C)NC(=O)[C@@H]1C[C@H](Cl)CN1C(=O)[C@@H](O)[C@H](Cc1ccccc1)NC(=O)[C@H](CCS(N)(=O)=O)NC(=O)OCc1ccccc1` was 115 to 122 °C; that for `Cc1cc(Nc2ncnc3ccc(-c4cccs4)cc23)ccc1OCc1ccccn1` was 205 to 206 °C. Under `CCCC12CCC(=O)C=C1c1c(cc(OCC(=O)O)c(Cl)c1Cl)C2O` (stereo not drawn) stands 206 to 208 °C; under `COCOc1ccc(Nc2ncccc2NS(=O)(=O)c2ccc(OC)cc2)cc1`, 118 to 119 °C; under `O=S(=O)(Cl)c1cccc(-c2cccc(-c3nc(-c4ccc(C(F)(F)F)cc4)cc(C(F)(F)F)n3)c2)c1`, 176 °C. Under `CC(C)(C)OC(=O)N1[C@H](C=CCCCO)COC1(C)C` stands 73 to 75 °C.

`NCCNC(=O)c1ccc(F)cc1` came in with a melting point of 57 to 60 °C.

In turn, `CN1CCC(C(=O)Nc2ccc(CN(C)C3CCOCC3)cc2)=Cc2cc(-c3ccc(N4CCCCC4)cc3)ccc21` came in with a melting point of 202 to 204 °C. Under `Cc1cn(-c2cccc(OS(N)(=O)=O)c2)cn1` stands 202 to 204 °C.

Take `O=C(Nc1cccnn1)N1CCN(c2nccc(-c3ccccc3F)n2)CC1`: the melting point lay in the range of 228 to 229 °C. Regarding `NC1C=CC=CN1NS(=O)n1ccnc1` (stereo not drawn), the melting point fell in the range of 174 to 175 °C.

For `CC(=O)Nc1ccc2c3c1c(=O)c(C(=O)O)cn3CCC2`, the melting point was > 300 °C. The value for `Cc1cc(OC(F)(F)F)ccc1O` was 72 °C; that for `Cc1ccc(S(=O)(=O)OC[C@H]2COc3ccc([N+](=O)[O-])cc3O2)cc1` was 138 °C; that for `CCOC(=O)CCCCCN(C)S(=O)(=O)C=C(C(C)=O)c1cccc([N+](=O)[O-])c1` was 60 to 63 °C. The value for `COC(=O)c1ccc2cc(OC)ccc2c1O` was 109 to 111 °C; that for `COC(=O)c1ccc(Cc2cn(C)c3ccc(C(=O)NCC(C)CC(F)(F)F)cc23)c(OC)c1` (stereo not drawn) was 150 to 151 °C. Under `O=C(CC1CSCCC1=O)c1ccc(Br)cc1` (stereo not drawn) stands 87.5 to 89.5 °C; under `CC(C)(C)OC(=O)N1CCC[C@H]1CNc1ccc2ncc(I)n2n1`, 138 to 139 °C. With `O=c1c2cc(Br)ccc2ncn1Cc1cccnc1`, the melting point lay within 162 to 164 °C. The value for `CN1CCC(Nc2ccccc2C(=N)c2ccccc2)CC1` was 117 to 118 °C; that for `CC(C)(O)P(=O)(Oc1ccccc1)Oc1ccccc1` was 70 to 72 °C; that for `Cc1ccsc1-c1ccc(C2(C)NC(=O)NC2=O)cc1` (stereo not drawn) was 201 to 202 °C.

`Cc1c(C#N)ncn1-c1cccc(Cl)c1` yielded a melting point of 117 to 118 °C. The value for `O=C(O)[C@@H](CCN1C(=O)c2ccccc2C1=O)Oc1c(Br)cc(-c2c3ccccc3cc3sc4ccccc4c23)cc1Br` was 222 to 223 °C. The value for `CC(C)c1nc2[nH]c(=O)[nH]c(=O)c2c(-c2ccc(F)cc2)c1/C=C/C=O` was 255 °C; that for `COC1CN(C(=O)c2cnn(C)c2C(=O)Nc2ccn3nc(-c4cccc(F)c4)nc3c2)C1` was 255 to 257 °C; that for `CN1CCCC1Cc1ccc(N)cc1` (stereo not drawn) was 59 to 61 °C. As for `CCCc1c(OCCCCCOc2ccc3c(c2CCC)OC(C(=O)OC)CC3)ccc(C(C)=O)c1O` (stereo not drawn), the melting point was in the range of 57 to 58 °C. In turn, `C#Cc1cc2ncc(C#N)c(Nc3cc(OC)c(Cl)cc3Cl)c2s1` came in with a melting point of 198 to 200 °C.

With `COc1cc(C=O)ccc1NC(=O)OCC1c2ccccc2-c2ccccc21`, the melting point was in the range of 150 to 152 °C. The compound `CCCc1nc(S(C)(=O)=O)c(C(=O)O)n1Cc1ccc(-c2ccccc2S(=O)(=O)NC(=O)NCC)cc1` returned a melting point of 131 °C. Under `CCCc1cc(CCCCC(=O)O)ccc1OC` stands 84 °C; under `COC(=O)c1ccc(NS(C)(=O)=O)c(C=O)c1`, 161 to 163 °C.

Compound `COC(=O)COc1ccc(CCCO)cc1` came in with a melting point of 47 to 48 °C. Under `COc1ccc(C2C(C(=O)c3ccc(C(C)C)cc3)=C(O)C(=O)N2c2ccc(C)nn2)cc1` (stereo not drawn) stands 263 to 267 °C; under `CC1(C)CCC(C)(C)c2cc3oc(-c4ccc(CO)cc4)nc3cc21`, 200 °C. The value for `Cc1cccc2c1NC(=O)c1cscc1O2` was 194 to 195 °C.

Compound `O=C(c1ccc(-c2cc(Cl)ccc2O)cc1C(F)(F)F)N1CCCC1` came in with a melting point of 220 to 221 °C. The value for `O=C(O)CCCc1cc2cc(Cl)ccc2n1S(=O)(=O)c1ccc2c(c1)CCN2` was 203 °C; that for `CCCCC(C(=O)NO)S(=O)(=O)c1ccc(OC)cc1` (stereo not drawn) was 130 °C; that for `CN(C(=O)N[C@@H](Cc1ccc(Nc2nccc3cnccc23)cc1)C(=O)O)c1ccccc1Cc1ccccc1` was 141 °C. Under `CCn1c(=O)c2c(nc(/C=C/c3ccc(OC)c(OC)c3)n2C)n(CC)c1=O` stands 190 to 191 °C; under `COC(=O)c1cc(C(F)(F)F)ccc1N`, 51 to 52 °C; under `COc1ccc2c(c1OC)CN(Cc1ccccc1)CCc1cc3c(cc1CC2)OCO3`, 75 to 78 °C. The value for `CCCCCCCCCCCCc1c[nH]c(C(=O)NN)c1` was 137 to 140 °C; that for `O=C(OCc1ccccc1)c1ccc(N2CCOCC2)cc1` was 85 to 86 °C. In turn, `NS(=O)(=O)c1cccc(NC(=O)c2cnn3c(C(F)(F)F)cc(-c4ccc(C(F)(F)F)cc4)nc23)c1` displayed a melting point of 155 °C. Under `CCC(Oc1ccc(-n2nnc3cc(C(F)(F)F)ccc32)cc1)C(=O)O` (stereo not drawn) stands 122 to 125 °C; under `O=C(NCc1ccc(F)cc1)c1cn(N2CCOCC2)c2ccc(CN3CCOCC3)cc2c1=O`, 165 to 167 °C; under `CCN(c1nc(F)ccc1[N+](=O)[O-])C1CCN(Cc2ccccc2)CC1`, 99 to 100 °C. The value for `O=C(Nc1ccc(F)cc1)NC1CCN(C(=O)c2ccc(C(=O)O)cc2)CC1` was 195 to 198 °C. As for `NC(=O)N1C(=O)C(=C(OCOC(=O)COCC(=O)OCc2ccccc2)c2cccs2)c2cc(F)c(Cl)cc21`, the melting point came out at 122 °C.

`C=CCN1CCCN(c2ccc(Cl)cc2C)C1=S`: the melting point lay within 101 to 103 °C. On to `COCc1ccc(-c2ccc3nnn(Cc4ccc5ncccc5c4)c3n2)cc1F`, for which the melting point was 200 to 201 °C.

For the compound `O=C(c1ccc(Cl)c([N+](=O)[O-])c1)c1cc2ccccc2o1`, the melting point came out at 132 °C. Turning to `Cc1ccc(Nc2nnc(-c3ccc(N4CCOCC4)c([N+](=O)[O-])c3)s2)cc1Cl`, the melting point is 268 to 269 °C.

In turn, `NC[C@@H]1CCCc2cc(S(=O)(=O)Nc3cccc(F)c3)ccc21` came in with a melting point of 122 to 123 °C.

The compound `NC(=O)Cc1ccc2c(c1)CCc1ccccc1C2=O` showed a melting point of 174 °C. The value for `O=C1CC2C(OCc3ccc(Br)cc3)CC(O1)C2N1CCCCC1` (single isomer, unassigned; (-)) was 85 to 88 °C; that for `Nc1cccnc1Nc1cc(Cl)ccc1C(=O)c1ccccc1` was 153 to 155 °C.

Source of the values: a melting point compilation (Tetko et al.; mined from patent text by program, amines drawn as free bases though some values may be those of a salt).
